From US20250127698A1, “Hair Perming Compositions With Amine Derivatives” (ELC Management LLC, priority 2023, published 2025)

Key:
[1] = DSC keratin denaturation temperature change after curling treatment; design: species or system human; details: for ΔT (TUntreated−TAlkalizer, keratin denaturation temperature): Type 1 Chinese hair after curling treatment, larger ΔT indicates more damage; for damage to hair (in words): hair curling treatment, Type 1 Chinese hair
Description: (§1) This damage occurs at the level of keratin proteins.
(§2) Untreated hair was used as a control.
(§3) A larger ΔT indicates more damage.

[2] = DSC keratin denaturation temperature change after straightening treatment; design: species or system human; details: for ΔT (TUntreated−TAlkalizer, keratin denaturation temperature): Type 3 Caucasian hair after straightening, larger ΔT indicates more damage; for damage to hair (in words): hair straightening treatment, Type 3 Caucasian hair
Description: as §1, §2, §3

[3] = active component of alkalizer; cited from earlier work
[4] = DSC keratin denaturation temperature change after curling treatment; details: for ΔT (TUntreated−TAlkalizer, keratin denaturation temperature): Type 1 Caucasian hair after curling treatment, larger ΔT indicates more damage
Description: It is known that the denaturation of keratin in hair can be detected by differential scanning calorimetry (DSC). DSC is a thermal analysis technique used to measure phase transition temperatures and heat of transformation (enthalpy) for endothermic and exothermic reactions.
For all of the test samples discussed above, DSC measurements were performed using the Discovery DSC 2500 (from TA Instruments. New Castle, DE). The experiments were carried out over a temperature range of 40° C. to 200° C., with a scan rate of 5° C./min under nitrogen protection. DSC samples were prepared by cutting tress samples into pieces (0.1 to 1.0 mm in size) and weighing. The hair samples were mixed with deionized water, and then sealed in high volume pans for at least 6 hours before measuring. The phase transition temperature (keratin denaturation temperature) of each hair sample was analyzed using TRIOS software (Discovery DSC 2500). Untreated hair was used as a control.
Each hair sample was analyzed at least twice, and the average temperature was obtained for data analysis. This was subtracted from the denaturation temperature of the control sample (ΔT=TUntreated−TAlkalizer). A larger ΔT indicates more damage.

[5] = pH of hair perming composition; type: physicochemical; details: for pH: hair perming composition: base of Table 2 (7.50% thioglycolic acid) plus alkalizer, same molar percentage of alkalizer
Description: For testing, we prepared the hair perming compositions shown by Tables 2 and 3, below. […] All compositions contain the same molar percentage of alkalizer, the water content being adjusted accordingly.

[6] = Curl efficiency after hair curling treatment; design: species or system human; details: for curl after the equivalent of 8 washes (in words) / curl lost after the equivalent of 8 washes, as percentage of initial curl (in words): Caucasian hair; for % Change In Curl Efficiency From 1 to 8 Washes / imparting curl (in words) / Curl Efficiency (%) After Treatment, 1 Wash and Dry / Curl Efficiency (%) After Treatment, 8 Washes and Dry: Type 1 Caucasian hair; for Curl Efficiency (%) After Treatment, 1 Wash and Dry: 1 wash with 5% SDS solution; for Curl Efficiency (%) After Treatment, 8 Washes and Dry: equivalent of 8 washes with 5% SDS solution
Description: (§4) The ability of each test composition to curl hair was established by measuring “curl efficiency”. Curl efficiency is a measure of curl tightness following a hair curling treatment. The higher the efficiency, the tighter the curl. We used a well-known method of measuring curl efficiency, wherein a portion of untreated straight hair of known length, Lu, is secured on an arrangement of pegs to form a sine wave pattern of five cycles, crest-to-crest. Because the pegs are fixed, the ideal length, Li, of the portion of hair when arranged into the five-cycle wave pattern, is known. Starting with a straight swatch of hair of length Lu, the ideal outcome would be a curled swatch of hair with a length of Li. Curl efficiency is a measure of how closely the ideal is attained.
(§5) Two types of hair samples were tested for curling; mixed sourced virgin Type 1Caucasian hair, and single sourced virgin Type 1 hair. For straightening, mixed sourced virgin Type 2C (very wavy) Caucasian hair was tested. Hair straightening test samples were prepared by collecting hair fibers into tresses, and clamping each tress at both ends. For those test samples that were to undergo a straightening treatment, the length, Lu, was measured between two previously determined points.
(§6) Each hair tress was wetted (reverse osmosis water). For curling, each hair tress was wound along a peg board to form a sine wave pattern of five cycles, as described above. For straightening, each hair tress was held on a board in a straight conformation, tension was applied, and the ends of the tress were secured. All test samples (curling or straightening) were allowed to dry before proceeding. Each board with a hair tress test sample was dipped for 10 seconds into a beaker with one of the hair perming compositions. After removing a board from solution, it was immediately placed in an oven for 20 minutes at 37° C. (normal body temperature). The test sample was removed from the oven, and rinsed for five minutes with 37° C. water, being careful not to allow the running water to fall directly on the hair tresses. After blotting with a paper towel, test samples were allowed to rest for five minutes at room temperature, for air oxidation to occur. The hair straightening test samples were removed from the board, blow dried and flat ironed at 200° C., which is commonly done in salon practice. At this point, the ideal length, Li, was measured between the two previously determined point mentioned above. Thereafter, each sample was rebound to the board.
(§7) Each bound hair tress was submerged for ten seconds in a 2% solution of H2O2 to neutralize the reducing agent and promote S-S bond formation, so that the hair tress would retain a desired shape (sine wave pattern or straight) when removed from the board. Each hair tress rested at room temperature for about five minutes, then was rinsed under 37° C. running water for five minutes, and subsequently blotted with a paper towel. Each test sample hair tress was removed from the board, laid on a flat surface, and allowed to dry. The fully permed dry tresses were washed in 5% SDS (sodium dodecyl sulfate) solution (which simulates salon practice) and allowed to dry overnight.
(§8) For the curling test samples, the length, Lt, of five waves, crest to crest was measured. For the straightening test samples, the final length, Lt, was measured between the two previously determined points. At this point, differential scanning calorimetry (DSC) measurements were made on a portion of each hair tress test sample. Also, for longevity performance, each tress was subjected to the equivalent of eight hand washings in 5% SDS solution using the GyroWash color fastness to laundering tester, and allowed to dry, before another length measurement, Lt, was made.
(§9) Curl efficiencies were computed using Equation 1.
(§10) [formula] • Lu=length of the untreated hair tress • Lt=crest-to-crest length of the five-wave portion of the treated hair tress • Li=ideal length of curled hair […]

[7] = Curl efficiency after hair curling treatment; design: species or system human; % Change In Curl Efficiency From 1 to 8 Washes: concentration or dose not given beside the values; details: for curl after the equivalent of 8 washes (in words) / curl lost after the equivalent of 8 washes, as percentage of initial curl (in words): Chinese hair; for % Change In Curl Efficiency From 1 to 8 Washes / imparting curl (in words) / Curl Efficiency (%) After Treatment, 1 Wash and Dry / Curl Efficiency (%) After Treatment, 8 Washes and Dry: Type 1 Chinese hair; for Curl Efficiency (%) After Treatment, 1 Wash and Dry: 1 wash with 5% SDS solution; for Curl Efficiency (%) After Treatment, 8 Washes and Dry: equivalent of 8 washes with 5% SDS solution
Description: as §4, §5, §6, §7, §8, §9, §10

[8] = Straightening efficiency after hair straightening treatment; design: species or system human; details: Type 2C Caucasian hair; 1 wash with 5% SDS solution
Description: The ability of each test composition to straighten curly hair was established by measuring “straightening efficiency”. Straightening efficiency represents the degree to which curly hair is made straight by a hair straightening treatment. We start with a curly, untreated hair tress of length Lu. The tress has an ideal straight length of Li, which is the length of the untreated tress when flat ironed to its maximum, straight length. After treatment the tress has a length of Lt. Straightening efficiency is the gain in length as a percentage of the maximum possible gain in length. […] A straightening efficiency of 100% means that the treated tress retained the maximum possible length.
as §5, §6, §7, §8
Straightening efficiencies were computed using Equation 2.
[formula] • Lu=length of the untreated hair tress • Lt=length of treated hair tress • Li=ideal length of straightened hair
(Li−Lu) represents the maximum possible increase in length as a result of treatment. […]

Row | pH of alkalizer composition ([5]; Table 7) | pH of alkalizer composition ([5]; Table 8) | pH of alkalizer composition ([5]; Table 9) | pH [5] | Molecule | ΔT (TUntreated−TAlkalizer, keratin denaturation temperature) [1] | ΔT (TUntreated−TAlkalizer, keratin denaturation temperature) [2] | pKa [3] | ΔT (TUntreated−TAlkalizer, keratin denaturation temperature) [4] | curl after the equivalent of 8 washes (in words) [6] | curl lost after the equivalent of 8 washes, as percentage of initial curl (in words) [6] | % Change In Curl Efficiency From 1 to 8 Washes [6] | imparting curl (in words) [6] | Curl Efficiency (%) After Treatment, 1 Wash and Dry [6] | Curl Efficiency (%) After Treatment, 8 Washes and Dry [6] | curl after the equivalent of 8 washes (in words) [7] | % Change In Curl Efficiency From 1 to 8 Washes [7] | Curl Efficiency (%) After Treatment, 1 Wash and Dry [7] | Curl Efficiency (%) After Treatment, 8 Washes and Dry [7] | Straightening Efficiency (%) After Treatment, 1 Wash and Dry [8] | damage to hair (in words) [1] | also measured
1 |  |  |  |  | CC(C)(N)CO [AMP, Aminomethyl propanol, reference compound] | 1.65 C. ° | 2.60 °C | 9.82 | 3.11 °C |  |  |  |  |  |  |  |  |  |  |  |  | 
2 | 9.18 | 9.18 | 9.18 | 9.18 | NCC(O)CO (stereo not shown) [Isoserinol, 3-Amino-1,2-propanediol] | 2.51 C. ° | 2.17 °C |  | 3.07 °C | ranked second for curl | comparable to or better than the standards | −7.69% | next best at imparting curl | 48.60% | 44.86% | ranked second for curl | −10.93% | 59.81% | 53.27% | 97.30% | did not perform as well as the other alkalizers | curl lost after the equivalent of 8 washes, as percentage of initial curl (in words) [7]: comparable to or better than the standards; imparting curl (in words) [7]: next best at imparting curl
3 | 10.56 | 10.56 | 10.56 | 10.56 | [Na+].[OH-] [NaOH, reference compound] | 5.60 C. ° | 4.60 °C |  | 6.34 °C |  |  | −17.64% |  | 47.66% | 39.25% |  | −19.92% | 54.86% | 43.93% | 65.71% |  | 
4 | 8.68 | 8.68 | 8.68 | 8.68 | NC(CO)CO [Serinol, 2-Amino-1,3-propanediol] | 0.62 C. ° | 0.50 °C |  | 1.76 °C |  |  | −8.15% |  | 45.79% | 42.06% |  | −14.82% | 50.47% | 42.99% | 88.24% | less damage than ammonium hydroxide | damage to hair (in words) [2]: less damage than ammonium hydroxide; damage to hair (in words) ([4]; hair curling treatment, Type 1 Caucasian hair): less damage than ammonium hydroxide

Row | Molecule | pH of alkalizer composition ([5]; Table 7) | pH of alkalizer composition ([5]; Table 8) | pH of alkalizer composition ([5]; Table 9) | pH [5] | ΔT (TUntreated−TAlkalizer, keratin denaturation temperature) [1] | ΔT (TUntreated−TAlkalizer, keratin denaturation temperature) [2] | pKa [3] | ΔT (TUntreated−TAlkalizer, keratin denaturation temperature) [4] | curl after the equivalent of 8 washes (in words) [6] | curl lost after the equivalent of 8 washes, as percentage of initial curl (in words) [6] | % Change In Curl Efficiency From 1 to 8 Washes [6] | imparting curl (in words) [6] | Curl Efficiency (%) After Treatment, 1 Wash and Dry [6] | Curl Efficiency (%) After Treatment, 8 Washes and Dry [6] | curl after the equivalent of 8 washes (in words) [7] | % Change In Curl Efficiency From 1 to 8 Washes [7] | Curl Efficiency (%) After Treatment, 1 Wash and Dry [7] | Curl Efficiency (%) After Treatment, 8 Washes and Dry [7] | Straightening Efficiency (%) After Treatment, 1 Wash and Dry [8] | damage to hair (in words) [1] | also measured
5 | DL-2-amino-1-propanol [DL-2-AP] | 9.45 | 9.45 | 9.45 | 9.45 | 3.49 C. ° | 3.20 °C | 9.6 | 3.95 °C | still had the most curl | lost the most curl of the tested samples | −11.11% | best at imparting curl | 50.47% | 44.86% | still had the most curl | −21.01% | 69.81% | 55.14% | 95.35% | did not perform as well as the other alkalizers | curl lost after the equivalent of 8 washes, as percentage of initial curl (in words) [7]: lost the most curl of the tested samples; imparting curl (in words) [7]: best at imparting curl; damage to hair (in words) [2]: more damage than ammonium hydroxide, MEA or AMP
